In PMC4764977, “AZD8797 is an allosteric non-competitive modulator of the human CX3CR1 receptor” (Biochemical Journal, 2016):
pEC50, pIC50, pKd: −log10 of the molar value. Values joined by “and” are separate entries in the source; they are usually repeats but may differ in a detail not shown here. Identical values can stand only once.

Experiments:
CX3CR1 [1] = molecular target: T1, CX3CR1 (Homo sapiens, UniProt P49238); assay: Dynamic mass redistribution (DMR), CHO-hCX3CR1 cells; type: cell-based; design: host or cells: CHO-K1
T1 sequence (P49238 1-355): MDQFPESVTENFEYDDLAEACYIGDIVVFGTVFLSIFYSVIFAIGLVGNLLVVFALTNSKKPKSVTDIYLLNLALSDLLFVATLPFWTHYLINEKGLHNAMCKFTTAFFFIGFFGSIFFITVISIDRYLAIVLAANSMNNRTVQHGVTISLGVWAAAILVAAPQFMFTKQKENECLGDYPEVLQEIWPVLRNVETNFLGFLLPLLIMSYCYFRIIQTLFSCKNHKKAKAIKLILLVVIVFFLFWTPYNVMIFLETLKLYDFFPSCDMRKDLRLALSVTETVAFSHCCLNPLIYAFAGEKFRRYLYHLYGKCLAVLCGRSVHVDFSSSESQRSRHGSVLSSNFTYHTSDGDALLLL
Procedure: CHO-hCX3CR1 cells were seeded at 12000 cells per well in DMEM with 10% FBS and RPMI-8226 cells at 8000 cells per well in RPMI 1640 medium with GlutaMAX and 20% FBS on 384-well fibronectin-coated EPIC™ biosensor plates (Corning) and cultured at 37°C for 24 h. At 18–24 h prior to compound treatment, the medium was replaced with serum-free medium with or without 100 ng·ml^−1 PTX. Cells were then washed with assay buffer (HBSS, 20 mM HEPES (pH 7.4) and 0.01% BSA) and allowed to equilibrate at 26°C for 1 h inside the EPIC™ plate reader. Following equilibration, a baseline scan was performed before adding AZD8797 or CX3CL1 using a CyBi-Well vario (CyBio). Dynamic mass redistribution (DMR) was then measured during a 60 min scan. As in the [^35S]GTPγS binding assay, the final DMSO concentration was held constant at 1%.

CX3CR1 [2] = molecular target: T1, CX3CR1; assay: Equilibrium saturation binding, CHO-hCX3CR1 membranes; design: host or cells: CHO-K1
Procedure: Cells were washed in PBS and lysed with an Ultra-Turrax Homogenizer in 50 mM Tris/HCl (pH 7.4) and 1 mM EDTA with Complete™ protease inhibitor (Roche). […] Protein concentration was determined using the BCA method (Thermo Fisher Scientific). […] The filter plate was washed in ice-cold 25 mM HEPES (pH 7.4), 5 mM MgCl2, 1 mM CaCl2 and 500 mM NaCl and dried at 50°C for 1 h. Scintillation cocktail, Optiphase Supermix (PerkinElmer) was added to each well and the radioactivity was measured using a MicroBeta Trilux reader (PerkinElmer). […] The DMSO concentration was held constant at 1%. where Kd is the radioligand dissociation constant. Saturation binding isotherms were analysed by non-linear regression and globally fitted to a hyperbolic one-site binding model taking into account both NSB and total binding to calculate the total receptor number (Bmax) and radioligand dissociation constant (Kd): […] NSB=NS·X+Background, where NS is the concentration-dependent NSB. To visualize the manner of binding of CX3CL1 and AZD8797, a diagnostic affinity ratio plot designed to compare strictly competitive behaviour with allosteric interactions was used. […] For single site competitive interactions, the resulting linear plot has the slope of 1.0. For allosteric but competitive interactions, the slope will start at 1.0 but progressively deviate from unity, eventually reaching a limit governed by the allosteric ternary complex model co-operativity factor α [21, 22].

CX3CR1 [3] = molecular target: T1, CX3CR1; assay: [3H]AZD8797 kinetic radioligand binding, CHO-hCX3CR1 membranes; design: host or cells: CHO-K1
Procedure: Assays were performed as described under equilibrium binding studies with the additions stated below. Association experiments on [^3H]AZD8797 were performed by adding 1 · Kd of radioligand in assay buffer in a 96-well plate. The reactions were started by addition of CHO-hCX3CR1 membranes at different time points and then incubated for between 1.5 min and 2 h at room temperature before being filtered. For the [^3H]AZD8797 dissociation experiments 1 · Kd of radioligand was incubated with CHO-hCX3CR1 membranes for 1 h at room temperature before starting the dissociation with the addition of 10 μM unlabelled AZD8797. The reactions were incubated for between 2.5 min and 3 h at room temperature before being filtered.
For the association experiments, the radioligand data were fitted to the following monophasic exponential association equation and the association rate (kon) was calculated using the added amounts of radioligand (L) and dissociation rate (koff) as constants. koff was measured in separate dissociation experiments.
The dissociation data were fitted to the monophasic exponential decay equation: […]
where Y0 is the binding (cpm) at time zero, X is the time and NS is the (non-specific) binding at infinite times. Half-life could then be calculated by dividing ln (2) by koff. Multiple compound dissociation data were fitted to the biphasic exponential decay equation: […]

[4] = molecular target: T2, CX3CR1 (RPMI-8226 cells endogenously expressing human CX3CR1) (Homo sapiens, UniProt P49238); assay: Cellix flow adhesion of RPMI-8226 cells to full-length CX3CL1; type: cell-based; conditions: flow 0.5 dyn·cm^−2, 15 min pre-incubation, n=3; read-out: IC50, prevention of capture (adhesion) of RPMI-8226 cells to CX3CL1
T2 construct: RPMI-8226 cells, a human B-lymphocyte cell line endogenously expressing human CX3CR1; CCL-155; host or cells: RPMI-8226
T2 sequence (P49238 1-355): T1 sequence (P49238 1-355)
Procedure: Adhesion of a human B-lymphocyte cell line (RPMI-8226) or hWB leucocytes to full-length human CX3CL1 were monitored using a microfluidics Cellix VenaFlux platform and Vena 8 Biochips (Cellix). Each channel on the Vena 8 chip was coated with anti-His monoclonal antibody (R&D Systems) followed by His-tagged full-length CX3CL1 (R&D Systems) and blocked for non-specific binding (NSB) with BSA.
Cell preparations: RPMI-8226 cells were cultured in RPMI 1640 medium with GlutaMAX and 20% FBS (HyClone, Perbio). Before the experiment, cells were centrifuged at 320 g and resuspended to 5 ×10^6 cells·ml^−1 in RPMI 1640 with 1% FBS. hWB with heparin as anti-coagulant was collected from healthy donors and 5 μM DiOC6 was added. AZD8797 was diluted in a 3-fold series in DMSO starting at 3.3 or 30 μM and pre-incubated with RPMI-8226 cells for 15 min or whole blood for 60 min. DMSO concentration held constant for all AZD8797 concentrations (0.1% for the RPMI-8226 experiments and 0.3% for the whole blood experiments). […]
RPMI-8226 cells in RPMI 1640+1% FBS or whole blood were pumped through the channels at 0.5 dyn·cm^−2 and 2.25 dyn·cm^−2 respectively, for 3 min. Images for quantification were captured using a microscope. Cells adhering to channels were counted and the mean values across five images in each channel were used for calculating the concentration–response curves.

[5] = increasing concentrations of unlabelled compound

CC(C)C[C@H](CO)Nc1nc(S[C@@H](C)c2ccccc2)nc2nc(N)sc12 [AZD8797]
Concentration needed for agonist response vs concentration needed to block CX3CL1 binding and functional response in membranes (CX3CR1 [1]; CHO-hCX3CR1 cells vs purified membranes): more than 10 fold
Effect of PTX treatment on DMR signal (CX3CR1 [1]; CHO-hCX3CR1 cells, 100 ng·ml^−1 PTX): reduced
Maximum effect, DMR (CX3CR1 [1]; CHO-hCX3CR1 cells, compound alone, no plateau, n=3): 79 % of CX3CL1
pEC50 (CX3CR1 [1]; CHO-hCX3CR1 cells, compound alone, no plateau, n=3, read-out: Potency, DMR agonism): < 5.30
Antagonist response in DMR (CX3CR1 [1]; challenging EC80 of CX3CL1 with different concentrations, cell line not specified, results not shown): could not measure any antagonist response
Effect on Bmax of 125I-CX3CL1 saturation binding (CX3CR1 [2]; [5]): decreased
Effect on Kd of 125I-CX3CL1 saturation binding (CX3CR1 [2]; [5]): without any effect
pKd (CX3CR1 [2]; one-site model, n=4): 7.92
koff (CX3CR1 [3]; dissociation started with 10 μM unlabelled AZD8797, n=2): 0.0007 s⁻¹
kon (CX3CR1 [3]; from kobs (n=5) and koff, room temperature): 233000 M⁻¹ s⁻¹
Dissociation half-life (CX3CR1 [3]; from koff): approximately 17 min
pKd (CX3CR1 [3]; koff/kon, read-out: Kd from rate constants): 8.54
pIC50 [4]: 8.22 and 8.24
